The text below walks through data of paper PMC12307992, “The Potential Influence of Associated Antidepressants on the Pharmacokinetic Profile of Esketamine in Patients Affected by Treatment-resistant Depression” (Current Neuropharmacology, 2025).

On the set-up of series [1]: method as in earlier work. To be noted: ref Data on File. Esketamine. Summary of Clinical Pharmacology. Janssen Research & Development, LLC. EMDS-ERI-149761559; 2018; cited from earlier work.
For series [2] the following is noted: after intranasal administration; cited from earlier work.
The conditions of series [3]: phase 3 studies; cited from earlier work.
A short description of series [4]: Serum esketamine levels (LC-MS/MS) after intranasal esketamine 56 mg in TRD patients. Particulars: for AUC: human, serum, other: intranasal, 56 mg, AUC value, 0-72 h.
Series [5] can be described thus: Adverse events 20 min post-esketamine (blood pressure, dizziness, confusion, ACES) in relation to serum levels. It is filed as in vivo, patients. Here is the method:
Adverse events of intranasal administration of esketamine were evaluated 20 min post-esketamine initiation, such as changes in systolic and diastolic blood pressure, vertigo, dissociation, dizziness, sedation, headache, nausea and vomiting, and confusion.
(§1) To assess the changes in clinical status with treatment, we administered the following clinical scales at BL and one month after the first intranasal esketamine: clinician-rated Brief Psychiatric Rating Scale-version 4.0 (BPRS-24) to evaluate psychiatric symptoms; Montgomery-Åsberg Depression Rating Scale (MADRS) and Hamilton Depression Rating Scale (HAM-D) to assess depression; Hamilton Anxiety Rating Scale (HAM-A) to assess anxiety; Young Mania Rating Scale (YMRS) to assess manic symptoms, Clinical Global Impressions Scale (CGI) to assess the overall severity (CGI-S) and improvement (CGI-I), with CGI-S administered at both timepoints and CGI-I only at 1 month. Self-rated scales included the Beck Depression Inventory, 2nd edition (BDI-II), used to assess the cognitive aspects of depression (Beck’s cognitive triad), and the World Health Organization Quality of Life Scale-Brief (WHOQOL-BREF) to assess patient’s quality-of-life (QoL). For all scales save the WHOQOL-BREF, higher scores indicate higher psychopathology, while for the WHOQOL-BREF, higher scores reflect better QoL. Furthermore, we administered the clinician-rated Agitation-Calmness Evaluation Scale (ACES) to assess agitation vs. sedation during the first esketamine administration phase (BL to 72 hours). ACES is a single-item scale, in which scores from 1 to 3 are inversely related to the degree of agitation, and scores from 5 to 9 are directly related to calmness and sedation, until the score of 8 and 9, which indicate deep sleep and unarousable state, respectively. Finally, we evaluated dissociation with the Clinician-Administered Dissociative States Scale (CADSS) following the first esketamine administration (BL to 72 hours).
After having applied the Shapiro-Wilk test to ascertain the normality of distribution of our sample and the Mauchly sphericity test to assess the validity of the Analysis of Variance (ANOVA), we proceeded by performing parametric tests. We used the ANOVA-1way to compare samples for continuous variables and Fishers Least Significant Difference (LSD) to test differences in nominal variables. We used Grubbs’ test (alpha=0.05) to identify statistically significant outliers to exclude them from further analyses. Correlations were sought through Pearson’s r correlation coefficient. Besides concentrations, we calculated the area under the curve (AUC) as stated above. For all other calculations, we used the IBM Statistical Package for the Social Sciences (SPSS), version 29.0 (September 2022, Armonk, New York: IBM Corporation).

The nature of series [6]: Salivary esketamine levels (LC-MS/MS) after intranasal esketamine 56 mg in TRD patients.
Series [7] is described as follows: Clinical rating scales at baseline and one month after first intranasal esketamine. It is filed as in vivo, patients.
Text: as §1

Setting [8] is: 20 min post-esketamine, 15 patients.
Where [9] appears, read: one month following initial esketamine administration, 15 patients.

In the case of `CC[C@H]1OC(=O)[C@H](C)[C@@H](O[C@H]2C[C@@](C)(OC)[C@@H](O)[C@H](C)O2)[C@H](C)[C@@H](O[C@@H]2O[C@H](C)C[C@H](N(C)C)[C@H]2O)[C@](C)(OC)C[C@@H](C)C(=O)[C@H](C)[C@@H](O)[C@]1(C)O` [clarithromycine], the “Effect of co-treatment on the PK profile of esketamine” value in series [1] is on record as “negligible effect”.

Consider `CN[C@]1(c2ccccc2Cl)CCCCC1=O` [esketamine, (S)-isomer of ketamine], for which the “elimination half-life (t½)” value in series [2] is 7 to 12 h. Further, the “time to reach maximum plasma concentrations (Tmax)” value in series [2] is 0.333 to 0.667 h. In addition, in series [3], the “Patients with a rise in blood pressure” value was under 10%. Besides, the “Serum esketamine levels after 72 hours” value in series [4] (56 mg intranasal, all groups) was “undetectable”. Also, the “AUC value of patient greater than average value of the group” value in series [4] (group 2 patient on oxcarbazepine vs group 2 average) is given as 46%. Further, the area under the curve (AUC) (commonly concentration integrated over time) in series [4] (average of group, group 1 (paroxetine/fluoxetine)) amounted to 868 ng·h/mL; in series [4] (average of group, group 2 (duloxetine)) it was 655 ng·h/mL; in series [4] (average of group, group 3 (venlafaxine/desvenlafaxine)), 857 ng·h/mL; in series [4] (average of group, group 4 (sertraline/citalopram/escitalopram)), 419 ng·h/mL; in series [4] (average of group, group 5 (vortioxetine)) it was 439 ng·h/mL; in series [4] (average of group, group 6 (TCAs/mirtazapine/trazodone)), 705 ng·h/mL. In addition, the AUC was 628 ng·h/mL in series [4] (single patient, group 1 patient on paroxetine, bupropion, valproate and atorvastatine); 954 ng·h/mL in series [4] (single patient, group 2 patient also on oxcarbazepine); 298 ng·h/mL in series [4] (single patient, group 3 patient also on valproate); 599 ng·h/mL in series [4] (single patient, group 3 patient also on valproate and atorvastatin); 921 ng·h/mL in series [4] (single patient, group 4 patient also on topiramate); 957 ng·h/mL in series [4] (single patient, group 5 patient also on prednisone). In series [4] (single patient, group 6 patient on mirtazapine and oxcarbazepine), this compound displayed an AUC of 260 ng·h/mL. Moreover, the “Correlation (χ2) of confusion with serum esketamine levels” value in series [5] (20 min post-administration, p < 0.05) is 3.830. In addition, the “Correlation (χ2) of dizziness with serum esketamine levels” value in series [5] (20 min post-administration, p = 0.043) worked out at 4.114. The “Patients with blood pressure reduced” value in series [5] (setting [8]) amounted to 28.3%. Further, in series [5] (setting [8]), the “Patients with blood pressure relatively unchanged” value amounted to 28.3%. Also, the “Patients with a rise in systolic blood pressure” value in series [5] (20 min post-esketamine, 23 of 53 patients) came out at 43.4%. Besides, the “Correlation (r) between serum esketamine values and changes in systolic blood pressure” value in series [5] (at 20 min, p = 0.0003) came out at 0.23. The “Correlation (r) between esketamine levels and changes in ACES” value in series [5] (at 20 minutes, p = 0.02) was found to be 0.1. In addition, the “Salivary levels of esketamine at 20 min relative to serum levels” value in series [6] (56 mg intranasal) was “several-fold greater than serum levels”. The “Esketamine levels in the saliva after 72 hours” value in series [6] (a few patients on fluoxetine/paroxetine, duloxetine or venlafaxine/desvenlafaxine) is given as “still detectable”. The same compound returned a concentration at 20 min in series [6] (human, saliva, other: intranasal, 56 mg) of over 1000 ng/mL. Moreover, the “Global scores of all clinical scales (BPRS-Total, MADRS, BDI, WHOQOL-BREF or CGI)” value in series [7] (1 month after esketamine administration) is “improved”. For the same compound, the YMRS values in series [7] (absolute score, all patients) is listed as under 8. In addition, the “Patients in whom HAM-A values dropped” value in series [7] (baseline to 1 month) is recorded as 51 of 53. In addition, the “Patients with YMRS scores increased” value in series [7] (setting [9]) came to 28.3%. Also, the “Patients with YMRS scores unchanged” value in series [7] (setting [9]) was 28.3%. The “Patients with YMRS scores decreased” value in series [7] (one month following initial esketamine administration, 23 patients) is 43.4%.
